Structures can show the parent of a compound that is named as a salt.

Our source for the melting point and Ki values is US7189720B2 (H. Lundbeck A/S, priority 1999, dated 2007).

For one data set, the target named is T1, human Y5 receptor (Homo sapiens, UniProt Q15761).
T1 construct: expressed in transfected cells; host or cells: mouse fibroblast LM(tk-) cells, e.g. L-hY5-7 (ATCC CRL-11995)
T1 sequence (Q15761 1-445): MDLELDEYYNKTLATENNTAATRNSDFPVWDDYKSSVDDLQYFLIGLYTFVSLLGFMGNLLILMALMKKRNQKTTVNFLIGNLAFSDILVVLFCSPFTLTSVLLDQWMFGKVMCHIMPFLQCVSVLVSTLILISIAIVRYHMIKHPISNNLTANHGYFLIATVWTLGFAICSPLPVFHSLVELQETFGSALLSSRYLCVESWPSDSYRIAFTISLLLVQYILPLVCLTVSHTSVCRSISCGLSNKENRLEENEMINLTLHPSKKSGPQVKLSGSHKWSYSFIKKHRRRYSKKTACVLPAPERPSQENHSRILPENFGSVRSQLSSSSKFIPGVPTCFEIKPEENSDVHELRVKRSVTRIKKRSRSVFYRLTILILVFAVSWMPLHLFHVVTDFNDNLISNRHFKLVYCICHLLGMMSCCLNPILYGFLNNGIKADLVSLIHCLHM
The data set can be described thus: Radioligand binding to membranes, cloned human Y5 receptor. Particulars: Table 6; read-out: Ki, nM hNPY-5.

The next data set deals with T2, human Y1 receptor (Homo sapiens, UniProt P25929).
T2 construct: expressed in transfected cells; host or cells: human embryonic kidney 293 cells, e.g. 293-hY1-5 (ATCC CRL-12121)
T2 sequence (P25929 1-384): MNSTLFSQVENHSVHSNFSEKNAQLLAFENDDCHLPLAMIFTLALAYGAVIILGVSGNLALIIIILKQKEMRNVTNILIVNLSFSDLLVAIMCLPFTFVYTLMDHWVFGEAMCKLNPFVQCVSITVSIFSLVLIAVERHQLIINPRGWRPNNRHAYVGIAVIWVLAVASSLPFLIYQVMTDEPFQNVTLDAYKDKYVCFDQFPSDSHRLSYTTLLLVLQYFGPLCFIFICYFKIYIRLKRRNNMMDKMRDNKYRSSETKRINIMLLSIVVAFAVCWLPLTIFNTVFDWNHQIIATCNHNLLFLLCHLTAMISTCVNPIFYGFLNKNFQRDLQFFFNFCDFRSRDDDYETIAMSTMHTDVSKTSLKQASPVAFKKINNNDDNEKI
Nature of the data set: Radioligand binding to membranes, cloned human Y1 receptor. Particulars: Table 6; hNPY-1 (one cell for Y1, Y2, Y4); read-out: Ki, nM hNPY-1,2,4.

In another data set the target is T3, human Y4 receptor (Homo sapiens, UniProt P50391).
T3 construct: expressed in transfected cells; host or cells: mouse fibroblast LM(tk-) cells, e.g. L-hY4-3 (ATCC CRL-11779)
T3 sequence (P50391 whole entry): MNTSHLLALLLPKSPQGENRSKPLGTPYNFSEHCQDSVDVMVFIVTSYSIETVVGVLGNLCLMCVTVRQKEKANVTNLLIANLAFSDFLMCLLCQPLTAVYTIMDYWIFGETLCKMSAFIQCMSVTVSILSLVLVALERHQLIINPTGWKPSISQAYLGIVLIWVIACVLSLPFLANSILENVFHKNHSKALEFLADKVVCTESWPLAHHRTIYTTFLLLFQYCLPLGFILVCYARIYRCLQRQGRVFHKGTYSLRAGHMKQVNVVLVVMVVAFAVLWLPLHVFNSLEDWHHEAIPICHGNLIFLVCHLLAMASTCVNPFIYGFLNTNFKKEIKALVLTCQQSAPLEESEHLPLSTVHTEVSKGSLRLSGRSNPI
Nature of the data set: Radioligand binding to membranes, cloned human Y4 receptor. Particulars: Table 6; hNPY-4 (one cell for Y1, Y2, Y4); read-out: Ki, nM hNPY-1,2,4.

The target of a further data set is T4, human Y2 receptor (Homo sapiens, UniProt P49146).
T4 sequence (P49146 1-381): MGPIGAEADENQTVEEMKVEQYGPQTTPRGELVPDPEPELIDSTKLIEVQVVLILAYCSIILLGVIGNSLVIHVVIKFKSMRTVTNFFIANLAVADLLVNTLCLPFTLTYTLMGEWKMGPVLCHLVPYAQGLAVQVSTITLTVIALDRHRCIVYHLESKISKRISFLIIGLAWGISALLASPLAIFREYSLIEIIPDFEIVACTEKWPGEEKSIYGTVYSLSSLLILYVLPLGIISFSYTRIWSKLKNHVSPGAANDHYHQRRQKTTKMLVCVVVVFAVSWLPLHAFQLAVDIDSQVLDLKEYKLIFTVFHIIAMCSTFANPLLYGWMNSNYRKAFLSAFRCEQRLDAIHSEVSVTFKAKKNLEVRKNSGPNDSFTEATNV
The data set can be described thus: Radioligand binding to membranes, cloned human Y2 receptor.

Protocol for human Y1 receptor: (§1) Binding of the compounds of the present invention to human Y1, Y2, Y4, and Y5 receptors was evaluated using stably transfected 293 or LM(tk-) cells as described above.
(§2) Membranes were harvested from COS-7 cells 48 hours after transient transfection. Adherent cells were washed twice in ice-cold phosphate buffered saline (138 mM NaCl, 8.1 mM Na2HPO4, 2.5 mM KCl, 1.2 mM KH2PO4, 0.9 mM CaCl2, 0.5 mM MgCl2, pH 7.4) and lysed by sonication in ice-cold sonication buffer (20 mM Tris-HCl, 5 mM EDTA, pH 7.7). Large particles and debris were cleared by low speed centrifugation (200×g, 5 min, 4° C.). Membranes were collected from the supernatant fraction by centrifugation (32,000×g, 18 min, 4° C.), washed with ice-cold hypotonic buffer, and collected again by centrifugation (32,000×g, 18 min, 4° C.). The final membrane pellet was resuspended by sonication into a small volume of ice-cold binding buffer (˜1 ml for every 5 plates: 10 mM NaCl, 20 mM HEPES, 0.22 mM KH2PO4, 1.26 mM CaCl2, 0.81 mM MgSO4, pH 7.4). Protein concentration was measured by the Bradford method (Bradford, 1976) using Bio-Rad Reagent, with bovine serum albumin as a standard. Membranes were held on ice for up to one hour and used fresh, or flash-frozen and stored in liquid nitrogen.
(§3) Membranes were prepared similarly from 293, LM(tk-), and NIH-3T3 cells.
(§4) Membrane suspensions were diluted in binding buffer supplemented with 0.1% bovine serum albumin to yield an optimal membrane protein concentration so that ^125I-PYY (or alternative radioligand such as ^125I-NPY, ^125I-NYY3-36, or ^125I-[Leu^31Pro^34]PYY) bound by membranes in the assay was less than 10% of ^125I-PYY (or alternative radioligand) delivered to the sample (100,000 dpm/sample=0.08 nM for competition binding assays). ^125I-PYY (or alternative radioligand) and peptide competitors were also diluted to desired concentrations in supplemented binding buffer. Individual samples were then prepared in 96-well polypropylene microtiter plates by mixing ^125I-PYY (25 μL) (or alternative radioligand), competing peptides or supplemented binding buffer (25 μL), and finally, membrane suspensions (200 μL). Samples were incubated in a 30° C. water bath with constant shaking for 120 min. Incubations were terminated by filtration over Whatman GF/C filters (pre-coated with 1% polyethyleneimine and air-dried before use), followed by washing with 5 mL of ice-cold binding buffer. Filter-trapped membranes were impregnated with MeltiLex solid scintillant (Wallac, Turku, Finland) and counted for ^125I in a Wallac Beta-Plate Reader. Alternatively, incubations were carried out in GF/C filter plates (pre-coated with 1% polyethyleneimine and air-dried before use), followed by vacuum filtration and three washes of 300 μL of ice-cold binding buffer. 50 μL of UltimaGold (Packard) scintillant were added and counted for ^125I, in a Wallac MicroBeta Trilux. Non-specific binding was defined by 300 nM human NPY for all receptors except the Y4 subtypes; 100 nM human PP was used for the human Y4 and 100 nM rat PP for the rat Y4.
Protocol for human Y2 receptor: as §1, §2, §3, §4
Protocol for human Y4 receptor: as §1, §2, §3, §4

As to `O=S(=O)(NCCCCCNc1nc(-c2ccccn2)cs1)c1cccs1` (as salt: chloride) [Example 60, 4-(2-Pyridyl)-2-(5-(2-thienyl)sulfonylaminopentyl)-amino-thiazole hydrogen chloride], the melting point fell in the range of 75 to 77 °C.
Regarding `O=S(=O)(NCCCCCNc1nc(-c2ccccn2)cs1)c1ccccc1F` (as salt: chloride) [Example 61, 2-(5-(2-Fluorophenyl)sulfonylamino)pentylamino-4-(2-pyridyl)-thiazole hydrogen chloride], the melting point fell in the range of 60 to 63 °C.
The molecule `COc1ccc(S(=O)(=O)NCCCCCNc2nc(-c3ccccn3)cs2)cc1` (as salt: chloride) [Example 62, 2-(5-(4-Methoxyphenyl)sulfonylamino)pentylamino-4-(2-pyridyl)thiazole hydrogen chloride] registered a melting point of 54 to 57 °C.
On the same count and under the same terms, the figure for `O=S(=O)(NCCCCCNc1nc(-c2ccccn2)cs1)c1ccc(F)c(F)c1` (as salt: chloride) [Example 64, 2-(5-(3,4-Difluorophenyl)sulfonylamino)pentylamino-4-(2-pyridyl)thiazole hydrogen chloride] is 65 to 68 °C; for `COc1ccc(C)cc1S(=O)(=O)NCCCCCNc1nc(-c2ccccn2)cs1` (as salt: chloride) [Example 65, 2-(5-(2-Methoxy-5-methylphenyl)sulfonylamino)pentylamino-4-(2-pyridyl)thiazole hydrogen chloride] it is 155 to 156 °C; for `O=S(=O)(Cc1ccccc1)NCCCCCNc1nc(-c2ccccn2)cs1` (as salt: chloride) [Example 66, 2-(5-(Benzylsulfonylamino)pentylamino-4-(2-pyridyl)thiazole hydrogen chloride] it is 62 to 64 °C.
For the molecule `CCS(=O)(=O)NCCCCCNc1nc(-c2ccccn2)cs1` (as salt: chloride) [Example 67, 2-(5-(Ethylsulfonylamino)pentyl)amino-4-(2-pyridyl)thiazole hydrogen chloride], the melting point lay within 49 to 51 °C.
Same read-out and setting: the figure for `O=S(=O)(NCCCCCNc1nc(-c2ccccn2)cs1)C(F)(F)F` (as salt: chloride) [Example 68, 2-(5-(Trifluoromethylsulfonylamino)pentyl)amino-4-(2-pyridyl)thiazole hydrogen chloride] is 63 to 65 °C.
Same read-out and setting: the result for `NS(=O)(=O)NCCCCCNc1nc(-c2ccccn2)cs1` (as salt: chloride) [Example 69, 2-(5-(Aminosulfonylamino)pentyl)amino-4-(2-pyridyl)thiazole hydrogen chloride] reads 68 to 70 °C.
`O=S(=O)(NCCCCCNc1nc(-c2cccnc2)cs1)c1ccccc1F` (as salt: chloride) [Example 70, 2-(5-(2-Fluorophenyl)sulfonylamino)pentylamino-4-(3-pyridyl)thiazole hydrogen chloride] yielded a melting point of 84 to 85 °C.
Same read-out and setting: the result for `Cc1noc(C)c1S(=O)(=O)NCCCCCNc1nc(-c2cccnc2)cs1` (as salt: chloride) [Example 71, 2-(5-(3,5-Dimethylisoxazol-4-yl)sulfonylamino)pentylamino-4-(3-pyridyl)thiazole hydrogen chloride] reads 114 to 115 °C.
The same measure, in the same setting: the result for `COc1ccc(C)cc1S(=O)(=O)NCCCCCNc1nc(-c2cccnc2)cs1` (as salt: chloride) [Example 72, 2-(5-(2-Methoxy-5-methyl)phenylsulfonylamino)pentylamino-4-(3-pyridyl)thiazole hydrogen chloride] reads 119 to 120 °C; that for `O=S(=O)(NCCCCCNc1nc(-c2ccncc2)cs1)c1ccccc1F` (as salt: chloride) [Example 73, 2-(5-(2-Fluoro)phenylsulfonylamino)pentylamino-4-(4-pyridyl)thiazole hydrogen chloride], 97 to 98 °C.
As for `CCS(=O)(=O)NC[C@H]1CC[C@H](Nc2nc3c(s2)CCSc2ccccc2-3)CC1` [Example 107, N1-{[4-(4,5-Dihydrobenzo[2,3]thiepino[4,5-d][1,3]thiazol-2-ylamino)cyclohexyl]methyl}-1-ethanesulfonamide], the Ki at human Y5 receptor was 5.1 nM; at human Y1 receptor, more than 10000 nM; at human Y4 receptor, more than 10000 nM; on human Y2 receptor it was more than 10 µM.
For `CCS(=O)(=O)NCCCCCNc1nc2c(s1)CCSc1ccccc1-2` [Example 109, N1-[5-(4,5-Dihydrobenzo[2,3]thiepino[4,5-d][1,3]thiazol-2-ylamino)pentyl]-1-ethanesulfonamide], the Ki is 3.7 nM at human Y5 receptor, more than 10000 nM on human Y1 receptor, more than 10000 nM at human Y4 receptor and more than 10 µM on human Y2 receptor.
As to `O=S(=O)(NCCCCCNc1nc2c(s1)CCSc1ccccc1-2)c1cccs1` [Example 110, N2-[5-(4,5-Dihydrobenzo[2,3]thiepino[4,5-d][1,3]thiazol-2-ylamino)pentyl]-2-thiophenesulfonamide], the Ki on human Y5 receptor is 2.6 nM; at human Y1 receptor it was more than 10000 nM; at human Y4 receptor it was more than 10000 nM; on human Y2 receptor, more than 10 µM.
`O=S(=O)(NC[C@H]1CC[C@H](Nc2nc3c(s2)CCSc2ccccc2-3)CC1)c1cccc2nsnc12` [Example 118, N4-{[4-(4,5-Dihydrobenzo[2,3]thiepino[4,5-d][1,3]thiazol-2-ylamino)cyclohexyl]methyl}-2,1,3-benzothiadiazole-4-sulfonamide]: the Ki on human Y5 receptor was 2.4 nM; at human Y1 receptor, more than 10000 nM; on human Y4 receptor it was more than 10000 nM; on human Y2 receptor it was more than 10 µM.
As for `Cc1cccc(F)c1S(=O)(=O)NC[C@H]1CC[C@H](Nc2nc3c(s2)CCSc2ccccc2-3)CC1` [Example 158, N1-{[4-(4,5-Dihydrobenzo[2,3]thiepino[4,5-d][1,3]thiazol-2-ylamino)cyclohexyl]methyl}-2-fluoro-6-methyl-1-benzenesulfonamide], the Ki on human Y5 receptor is 8.2 nM; at human Y1 receptor it was more than 10000 nM; at human Y4 receptor, more than 10000 nM; on human Y2 receptor, more than 10 µM.
`CS(=O)(=O)NCCCCCNc1nc2c(s1)CCSc1ccc(F)cc1-2` [Example 159, N-{5-[(9-Fluoro-4,5-dihydrobenzo[2,3]thiepino[4,5-d][1,3]thiazol-2-yl)amino]pentyl}methanesulfonamide]: the Ki at human Y5 receptor is 6.1 nM; at human Y1 receptor, more than 10000 nM; on human Y4 receptor, more than 10000 nM; at human Y2 receptor, more than 10 µM.
On to `COc1ccc(C)cc1S(=O)(=O)NCCCCCNc1nc2c(s1)CCSc1ccc(F)cc1-2` [Example 160, N1-{5-[(9-Fluoro-4,5-dihydrobenzo[2,3]thiepino[4,5-d][1,3]thiazol-2-yl)amino]pentyl}-2-methoxy-5-methyl-1-benzenesulfonamide], for which the Ki is 2.8 nM on human Y5 receptor, more than 10000 nM on human Y1 receptor, more than 10000 nM at human Y4 receptor and more than 10 µM at human Y2 receptor.
On to `O=S(=O)(NCCCCCNc1nc2c(s1)CCSc1ccc(F)cc1-2)c1ccccc1F` [Example 161, N1-{5-[(9-Fluoro-4,5-dihydrobenzo[2,3]thiepino[4,5-d][1,3]thiazol-2-yl)amino]pentyl}-2-fluoro-1-benzenesulfonamide], for which the inhibitory constant (Ki) was 4.9 nM at human Y5 receptor, more than 10000 nM at human Y1 receptor, more than 10000 nM on human Y4 receptor and more than 10 µM on human Y2 receptor.
As to `O=S(=O)(NCCCCCNc1nc2c(s1)CCSc1ccc(F)cc1-2)c1cccs1` [Example 162, N2-{5-[(9-Fluoro-4,5-dihydrobenzo[2,3]thiepino[4,5-d][1,3]thiazol-2-yl)amino]pentyl}-2-thiophenesulfonamide], the inhibitory constant (Ki) at human Y5 receptor is 4.8 nM; at human Y1 receptor it was more than 10000 nM; on human Y4 receptor, more than 10000 nM; at human Y2 receptor, more than 10 µM.

One may read the melting point as the temperature of the solid-liquid transition. As usually defined, the Ki is the dissociation constant of the complex between target and ligand, obtained from inhibition or displacement.
